Data as given in patent US8071605B2, “Piperidine compounds for use in the treatment of bacterial infections” (AstraZeneca AB, priority 2008, dated 2011).

These compounds were tested against S. aureus GyrB ATPase (Staphylococcus aureus, UniProt P0A0K8) (assay: S. aureus GyrB ATPase inhibition (ammonium molybdate/malachite green phosphate detection)). Conditions: compound concentration of 1 μM (unless otherwise noted).
Format: biochemical
Description: E. coli GyrB ATPase Inhibition Activity: Compounds can be tested for inhibition of E. coli GyrB ATPase activity using an ammonium molybdate/malachite green-based phosphate detection assay (Lanzetta, P. A., L. J. Alvarez, P. S. Reinach, and O. A. Candia, 1979, 100: 95-97). Assays can be performed in multiwell plates in 30 μl reactions containing: 50 mM Hepes buffer pH 7.5, 75 mM ammonium acetate, 8.0 mM magnesium chloride, 0.5 mM ethylenediaminetetraacetic acid, 5% glycerol, 1 mM 1,4-Dithio-DL-threitol, 200 nM bovine serum albumin, 1.6 μg/ml sheared salmon sperm DNA, 400 pM E. coli GyrA, 400 pM E. coli GyrB, 250 μM ATP, and compound in dimethylsulfoxide. Reactions can be quenched with 30 μl of ammonium molybdate/malachite green detection reagent containing 1.2 mM malachite green hydrochloride, 8.5 mM ammonium molybdate tetrahydrate, and 1 M hydrochloric acid. Plates can be read in an absorbance plate reader at 650 nm and percent inhibition values are calculated using dimethylsulfoxide (2%)-containing reactions as 0% inhibition and EDTA-containing (2.4 μM) reactions as 100% inhibition controls. An IC50 measurement of compound potency for each compound can be determined from reactions performed in the presence of 10 different compound concentrations. E. coli Topoisomerase IV ATPase Inhibition Activity: Compounds can be tested for inhibition of E. coli topoisomerase IV ATPase activity as described above for E. coli GyrB except the 30 μl reactions contained the following: 20 mM TRIS buffer pH 8, 50 mM ammonium acetate, 8 mM magnesium chloride, 5% glycerol, 5 mM 1,4-Dithio-DL-threitol, 0.005% Brij-35, 5 μg/ml sheared salmon sperm DNA, 500 pM E. coli ParC, 500 pM E. coli ParE, 160 μM ATP, and compound in dimethylsulfoxide. An IC50 measurement of compound potency for each compound can be determined from reactions performed in the presence of 10 different compound concentrations. S. aureus GyrB ATPase Inhibition Activity: Compounds may be tested for inhibition of S. aureus GyrB ATPase activity using an ammonium molybdate/malachite green-based phosphate detection assay (Lanzetta, P. A., L. J. Alvarez, P. S. Reinach, and O. A. Candia, 1979, 100: 95-97). Assays can be performed in multiwell plates in 30 μl reactions containing: 50 mM Hepes buffer pH 7.5, 75 mM ammonium acetate, 8.0 mM magnesium chloride, 0.5 mM ethylenediaminetetraacetic acid, 5% glycerol, 1.0 mM 1,4-Dithio-DL-threitol, 200 nM bovine serum albumin, 1.0 μg/ml sheared salmon sperm DNA, 250 pM E. coli GyrA, 250 pM S. aureus GyrB, 250 μM ATP, and compound in dimethylsulfoxide. Reactions can be quenched with 30 μl of ammonium molybdate/malachite green detection reagent containing 1.2 mM malachite green hydrochloride, 8.5 mM ammonium molybdate tetrahydrate, and 1 M hydrochloric acid. Plates can be read in an absorbance plate reader at 650 nm and percent inhibition values can be calculated using dimethylsulfoxide (2%)-containing reactions as 0% inhibition and EDTA-containing (2.4 μM) reactions as 100% inhibition controls. An IC50 measurement of compound potency for each compound can be determined from reactions performed in the presence of 10 different compound concentrations.
Compounds of the invention were tested in an assay substantially similar to the assay described above for measuring the inhibition of S. aureus GyrB ATPase. Percent inhibition of S. aureus GyrB ATPase at a compound concentration of 1 μM (unless otherwise noted) is disclosed in the following table: […]

Sequence of S. aureus GyrB ATPase (P0AES4 whole entry): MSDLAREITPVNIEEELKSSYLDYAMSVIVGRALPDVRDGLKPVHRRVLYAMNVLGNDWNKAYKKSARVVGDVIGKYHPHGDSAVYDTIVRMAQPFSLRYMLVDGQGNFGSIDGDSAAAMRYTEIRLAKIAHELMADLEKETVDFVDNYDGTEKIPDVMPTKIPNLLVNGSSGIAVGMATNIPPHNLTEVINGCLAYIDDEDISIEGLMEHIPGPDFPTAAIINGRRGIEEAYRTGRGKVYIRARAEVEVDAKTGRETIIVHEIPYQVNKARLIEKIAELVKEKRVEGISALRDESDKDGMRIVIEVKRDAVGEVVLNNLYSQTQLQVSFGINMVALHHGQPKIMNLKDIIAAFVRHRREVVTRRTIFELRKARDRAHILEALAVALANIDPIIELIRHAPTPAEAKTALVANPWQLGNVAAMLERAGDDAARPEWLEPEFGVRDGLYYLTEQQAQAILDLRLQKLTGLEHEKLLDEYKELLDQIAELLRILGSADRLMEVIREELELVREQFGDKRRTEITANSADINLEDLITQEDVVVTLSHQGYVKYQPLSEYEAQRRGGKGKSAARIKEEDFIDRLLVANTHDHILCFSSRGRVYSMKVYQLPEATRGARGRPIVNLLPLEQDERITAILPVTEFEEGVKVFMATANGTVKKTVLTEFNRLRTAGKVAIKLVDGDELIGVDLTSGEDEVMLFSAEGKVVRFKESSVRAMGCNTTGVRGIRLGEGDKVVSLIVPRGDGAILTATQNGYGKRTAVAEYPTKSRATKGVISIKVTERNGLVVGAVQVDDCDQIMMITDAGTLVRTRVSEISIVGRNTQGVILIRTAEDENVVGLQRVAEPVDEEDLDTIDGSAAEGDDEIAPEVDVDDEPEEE
Sequence of S. aureus GyrB ATPase (P0A0K8 whole entry): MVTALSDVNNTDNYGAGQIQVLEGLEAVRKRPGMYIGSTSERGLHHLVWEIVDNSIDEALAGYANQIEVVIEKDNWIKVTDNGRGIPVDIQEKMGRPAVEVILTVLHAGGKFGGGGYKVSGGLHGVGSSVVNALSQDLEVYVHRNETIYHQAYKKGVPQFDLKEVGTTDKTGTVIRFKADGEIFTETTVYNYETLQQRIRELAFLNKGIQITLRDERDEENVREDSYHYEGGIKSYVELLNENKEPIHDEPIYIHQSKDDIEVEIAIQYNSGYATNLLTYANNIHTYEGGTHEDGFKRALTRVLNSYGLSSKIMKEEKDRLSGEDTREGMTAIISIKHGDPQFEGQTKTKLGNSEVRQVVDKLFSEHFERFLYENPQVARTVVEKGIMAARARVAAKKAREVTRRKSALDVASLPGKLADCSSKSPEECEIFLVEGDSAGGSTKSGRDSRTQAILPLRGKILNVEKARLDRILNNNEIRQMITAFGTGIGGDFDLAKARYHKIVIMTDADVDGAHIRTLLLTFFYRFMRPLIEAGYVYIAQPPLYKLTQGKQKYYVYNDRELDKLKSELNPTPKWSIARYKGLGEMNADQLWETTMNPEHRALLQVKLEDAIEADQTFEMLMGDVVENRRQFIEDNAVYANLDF

Row | Structure (SMILES) | inhibition at 1 µM [%]
1 | CO[C@H]1CN(c2nc(-c3cnc(NCCN4CCN(C)CC4)cn3)c(C(=O)O)s2)CC[C@H]1NC(=O)c1[nH]c(C)c(Cl)c1Cl [Example 133] | 112
2 | Cc1[nH]c(C(=O)N[C@@H]2CCN(c3nc(-c4cnc(NCCN5CCCC5=O)cn4)c(C(=O)O)s3)C[C@@H]2C)c(Cl)c1Cl [Example 169, 2-[(3S,4R)-4-{[(3,4-dichloro-5-methyl-1H-pyrrol-2-yl)carbonyl]amino}-3-methylpiperidin-1-yl]-4-(5-{[2-(2-oxopyrrolidin-1-yl)ethyl]amino}pyrazin-2-yl)-1,3-thiazole-5-carboxylic acid] | 102
3 | Cc1[nH]c(C(=O)N[C@@H]2CCN(c3nc(-c4cnc(N5CCN(CC6CCCO6)CC5)cn4)c(C(=O)O)s3)C[C@@H]2C)c(Cl)c1Cl (stereo partly drawn) [Example 183, 2-[(3S,4R)-4-{[(3,4-dichloro-5-methyl-1H-pyrrol-2-yl)carbonyl]amino}-3-methylpiperidin-1-yl]-4-{5-[4-(tetrahydrofuran-2-ylmethyl)piperazin-1-yl]pyrazin-2-yl}-1,3-thiazole-5-carboxylic acid] | 116
4 | CCO[C@H]1CN(c2nc(-c3cnc(N4CCOCC4)cn3)c(C(=O)O)s2)CC[C@H]1NC(=O)c1[nH]c(C)c(Cl)c1Cl [Example 87] | 109
5 | Cc1[nH]c(C(=O)N[C@@H]2CCN(c3nc(-c4ncnn4C)c(C(=O)O)s3)C[C@@H]2C)c(Cl)c1Cl [Example 22] | 112
6 | CCO[C@H]1CN(c2nc(-c3cnc(NC(COC)COC)cn3)c(C(=O)O)s2)CC[C@H]1NC(=O)c1[nH]c(C)c(Cl)c1Cl [Example 92] | 102
7 | CO[C@H]1CN(c2nc(-c3cnc(NCCN4CCCC4=O)cn3)c(C(=O)O)s2)CC[C@H]1NC(=O)c1[nH]c(C)c(Cl)c1Cl [Example 127] | 110
8 | CO[C@H]1CN(c2nc(-c3cnc(NCC4CN5CCN4CC5)cn3)c(C(=O)O)s2)CC[C@H]1NC(=O)c1[nH]c(C)c(Cl)c1Cl (stereo partly drawn) [Example 195, 4-{5-[(1,4-diazabicyclo[2.2.2]oct-2-ylmethyl)amino]pyrazin-2-yl}-2-[(3S,4R)-4-{[(3,4-dichloro-5-methyl-1H-pyrrol-2-yl)carbonyl]amino}-3-methoxypiperidin-1-yl]-1,3-thiazole-5-carboxylic acid] | 118
9 | CO[C@H]1CN(c2nc(-c3cnc(N4CCOCC4)cn3)c(C(=O)O)s2)CC[C@H]1NC(=O)c1[nH]c(C)c(Cl)c1Cl [Example 125] | 111
10 | CCO[C@H]1CN(c2nc(-c3ncnn3C)c(C(=O)O)s2)CC[C@H]1NC(=O)c1[nH]c(C)c(Cl)c1Cl [Example 8] | 100
11 | Cc1[nH]c(C(=O)N[C@@H]2CCN(c3nc(-c4cnc(N5CCN(CC6CCCCC6)CC5)cn4)c(C(=O)O)s3)C[C@@H]2C)c(Cl)c1Cl [Example 178, 4-{5-[4-(cyclohexylmethyl)piperazin-1-yl]pyrazin-2-yl}-2-[(3S,4R)-4-{[(3,4-dichloro-5-methyl-1H-pyrrol-2-yl)carbonyl]amino}-3-methylpiperidin-1-yl]-1,3-thiazole-5-carboxylic acid] | 102
12 | CO[C@H]1CN(c2nc(-c3nccc(N4CCN(CC(C)C)CC4)n3)c(C(=O)O)s2)CC[C@H]1NC(=O)c1[nH]c(C)c(Cl)c1Cl [Example 192, 2-[(3S,4R)-4-{[(3,4-dichloro-5-methyl-1H-pyrrol-2-yl)carbonyl]amino}-3-methoxypiperidin-1-yl]-4-{4-[4-(2-methylpropyl)piperazin-1-yl]pyrimidin-2-yl}-1,3-thiazole-5-carboxylic acid] | 108
13 | Cc1[nH]c(C(=O)N[C@@H]2CCN(c3nc(-c4cnc(N5CCN(CC6CCCN(C)C6)CC5)cn4)c(C(=O)O)s3)C[C@@H]2C)c(Cl)c1Cl (stereo partly drawn) [Example 177, 2-[(3S,4R)-4-{[(3,4-dichloro-5-methyl-1H-pyrrol-2-yl)carbonyl]amino}-3-methylpiperidin-1-yl]-4-(5-{4-[(1-methylpiperidin-3-yl)methyl]piperazin-1-yl}pyrazin-2-yl)-1,3-thiazole-5-carboxylic acid] | 107
14 | CCO[C@H]1CN(c2nc(-c3cnccn3)c(C(=O)O)s2)CC[C@H]1NC(=O)c1cc(Cl)c(C)[nH]1 [Example 18] | 108
15 | CO[C@H]1CN(c2nc(-c3cnc(N4CCCCC4)cn3)c(C(=O)O)s2)CC[C@H]1NC(=O)c1[nH]c(C)c(Cl)c1Cl [Example 124] | 112
16 | CCCO[C@H]1CN(c2nc(-c3nccn3CCOC)c(C(=O)O)s2)CC[C@H]1NC(=O)c1[nH]c(C)c(Cl)c1C#N [Example 209, 2-[(3S,4R)-4-{[(4-chloro-3-cyano-5-methyl-1H-pyrrol-2-yl)carbonyl]amino}-3-propoxypiperidin-1-yl]-4-[1-(2-methoxyethyl)-1H-imidazol-2-yl]-1,3-thiazole-5-carboxylic acid] | 105
17 | CO[C@H]1CN(c2nc(-c3cnc(OCCN4CCN(C)CC4)cn3)c(C(=O)O)s2)CC[C@H]1NC(=O)c1[nH]c(C)c(Cl)c1Cl [Example 64] | 104
18 | Cc1[nH]c(C(=O)N[C@@H]2CCN(c3nc(-c4cnc(N5CCN[C@H](C)C5)cn4)c(C(=O)O)s3)C[C@@H]2C)c(Cl)c1Cl [Example 181, 2-[(3S,4R)-4-{[(3,4-dichloro-5-methyl-1H-pyrrol-2-yl)carbonyl]amino}-3-methylpiperidin-1-yl]-4-{5-[(3R)-3-methylpiperazin-1-yl]pyrazin-2-yl}-1,3-thiazole-5-carboxylic acid] | 101
19 | CCO[C@H]1CN(c2nc(-c3ncnn3C)c(C(=O)O)s2)CC[C@H]1NC(=O)c1[nH]c(C)c(Cl)c1C#N [Example 12] | 106
20 | Cc1[nH]c(C(=O)N[C@@H]2CCN(c3nc(-c4ncccc4F)c(C(=O)O)s3)C[C@@H]2C)c(C#N)c1Cl [Example 28] | 98
21 | CCN1CCN(c2ccnc(-c3nc(N4CC[C@@H](NC(=O)c5[nH]c(C)c(Cl)c5Cl)[C@@H](OC)C4)sc3C(=O)O)n2)CC1 [Example 193, 2-[(3S,4R)-4-{[(3,4-dichloro-5-methyl-1H-pyrrol-2-yl)carbonyl]amino}-3-methoxypiperidin-1-yl]-4-[4-(4-ethylpiperazin-1-yl)pyrimidin-2-yl]-1,3-thiazole-5-carboxylic acid] | 109
22 | CCO[C@H]1CN(c2nc(-c3cnc(NCCN4CCNC4=O)cn3)c(C(=O)O)s2)CC[C@H]1NC(=O)c1[nH]c(C)c(Cl)c1Cl [Example 93] | 94
23 | CO[C@H]1CN(c2nc(-c3cnc(NCCN4CCOCC4)cn3)c(C(=O)O)s2)CC[C@H]1NC(=O)c1[nH]c(C)c(Cl)c1Cl [Example 130] | 107
24 | CCO[C@H]1CN(c2nc(-c3cnc(N4CCN(CC(C)C)CC4)cn3)c(C(=O)O)s2)CC[C@H]1NC(=O)c1[nH]c(C)c(Cl)c1Cl [Example 96] | 104
25 | CCO[C@H]1CN(c2nc(-c3cnc(NCCN4CCN(C)CC4)cn3)c(C(=O)O)s2)CC[C@H]1NC(=O)c1[nH]c(C)c(Cl)c1Cl [Example 95] | 114
26 | Cc1[nH]c(C(=O)N[C@@H]2CCN(c3nc(-c4cnc(NCCN5CCOCC5)cn4)c(C(=O)O)s3)C[C@@H]2C)c(Cl)c1Cl [Example 171, 2-[(3S,4R)-4-{[(3,4-dichloro-5-methyl-1H-pyrrol-2-yl)carbonyl]amino}-3-methylpiperidin-1-yl]-4-(5-{[2-(morpholin-4-yl)ethyl]amino}pyrazin-2-yl)-1,3-thiazole-5-carboxylic acid] | 101
27 | CCN1CCN(c2cnc(-c3nc(N4CC[C@@H](NC(=O)c5[nH]c(C)c(Cl)c5Cl)[C@@H](OC)C4)sc3C(=O)O)cn2)CC1 [Example 138] | 103
